Experimental data from patent US12662489B2 (Sitryx Therapeutics Limited, priority 2023, dated 2026).

Legend:
[1] = biological target: T1, MTHFD1 recombinant human enzyme (Homo sapiens, UniProt P11586); assay: MTHFD1 inhibition assay (NAD(P)H-Glo luminescence); conditions: MTHFD1 IC50, recombinant human enzyme 200 nM, NADP, band
T1 sequence (P11586 2-291 limits assumed): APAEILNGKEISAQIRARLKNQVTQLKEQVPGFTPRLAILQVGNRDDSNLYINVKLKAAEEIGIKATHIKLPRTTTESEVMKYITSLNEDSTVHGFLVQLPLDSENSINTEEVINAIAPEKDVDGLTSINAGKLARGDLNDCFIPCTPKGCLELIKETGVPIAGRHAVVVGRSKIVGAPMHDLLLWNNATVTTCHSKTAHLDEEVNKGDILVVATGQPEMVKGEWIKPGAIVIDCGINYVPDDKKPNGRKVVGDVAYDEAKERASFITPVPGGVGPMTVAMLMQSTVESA

[2] = biological target: T2, MTHFD2 recombinant human enzyme (Homo sapiens, UniProt P13995); assay: MTHFD2 inhibition assay (NAD(P)H-Glo luminescence); conditions: for MTHFD1/MTHFD2 IC50 ratio: selectivity of MTHFD2 inhibition over MTHFD1, band
T2 sequence (P13995 36-350): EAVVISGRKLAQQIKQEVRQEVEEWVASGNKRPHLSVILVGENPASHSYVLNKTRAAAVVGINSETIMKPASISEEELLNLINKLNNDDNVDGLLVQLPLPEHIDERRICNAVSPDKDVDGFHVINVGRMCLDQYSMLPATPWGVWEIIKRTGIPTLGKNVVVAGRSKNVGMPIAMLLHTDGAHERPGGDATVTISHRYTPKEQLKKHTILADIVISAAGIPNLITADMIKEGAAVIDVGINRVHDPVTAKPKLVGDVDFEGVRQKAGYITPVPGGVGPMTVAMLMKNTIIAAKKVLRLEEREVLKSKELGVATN

IC50 [1] [nM] | IC50 [2] [nM] | MTHFD1/MTHFD2 IC50 ratio [2] | Structure (SMILES)
100 to 1000 | 10 to 100 | H (>9.0 to 30) | COC[C@H]1CN(c2cc(Cl)c3c4c(c(=O)oc3c2C)CN(C(=O)c2cc(N(C)C)c(C(=O)NS(=O)(=O)N3CCC[C@@H]3C(F)(F)F)cc2F)CC4)CCN1C [Example 278, 4-(10-chloro-8-((R)-3-(methoxymethyl)-4-methylpiperazin-1-yl)-7-methyl-5-oxo-1,3,4,5-tetrahydro-2H-chromeno[3,4-c]pyridine-3-carbonyl)-2-(dimethylamino)-5-fluoro-N-(((R)-2-(trifluoromethyl)pyrrolidin-1-yl)sulfonyl)benzamide]
10 to 100 | 1 to 10 | G (^ 3 to 9.0) | COC[C@H]1CN(c2cc(C)c3c4c(c(=O)oc3c2C)CN(C(=O)c2ccc(C(=O)NS(=O)(=O)N(C)C)c(N(C)C3CCC3)c2)CC4)CCN1C [Example 55, (R)-2-(cyclobutyl(methyl)amino)-N-(N,N-dimethylsulfamoyl)-4-(8-(3-(methoxymethyl)-4-methylpiperazin-1-yl)-7,10-dimethyl-5-oxo-1,3,4,5-tetrahydro-2H-chromeno[3,4-c]pyridine-3-carbonyl)benzamide]
1 to 10 | 1 to 10 | G (^ 3 to 9.0) | COC[C@H]1CN(c2cc(C)c3c4c(c(=O)oc3c2C)CN(C(=O)c2ccc(C(=O)NS(=O)(=O)N3CCCC3)c(N3CCCC3)c2)CC4)CCN1C [Example 96, (R)-4-(8-(3-(methoxymethyl)-4-methylpiperazin-1-yl)-7,10-dimethyl-5-oxo-1,3,4,5-tetrahydro-2H-chromeno[3,4-c]pyridine-3-carbonyl)-2-(pyrrolidin-1-yl)-N-(pyrrolidin-1-ylsulfonyl)benzamide]
100 to 1000 | 10 to 100 | H (>9.0 to 30) | COC[C@H]1CN(c2cc(C)c3c4c(c(=O)oc3c2C)CN(C(=O)c2ccc(C(=O)NS(=O)(=O)N3CCCC3)c(N(C)C3CCC3)c2)CC4)CCN1C [Example 200, (R)-2-(cyclobutyl(methyl)amino)-4-(8-(3-(methoxymethyl)-4-methylpiperazin-1-yl)-7,10-dimethyl-5-oxo-1,3,4,5-tetrahydro-2H-chromeno[3,4-c]pyridine-3-carbonyl)-N-(pyrrolidin-1-ylsulfonyl)benzamide]
1 to 10 | 1 to 10 | F (<3) | COC[C@H]1CN(c2ccc3c4c(c(=O)oc3c2Cl)CN(C(=O)c2ccc(C(=O)NS(=O)(=O)N(C)C)c(OC3CCCC3)c2F)CC4)CCN1C [Example 44, (R)-4-(7-chloro-8-(3-(methoxymethyl)-4-methylpiperazin-1-yl)-5-oxo-1,3,4,5-tetrahydro-2H-chromeno[3,4-c]pyridine-3-carbonyl)-2-(cyclopentyloxy)-N-(N,N-dimethylsulfamoyl)-3-fluorobenzamide]
100 to 1000 | 10 to 100 | H (>9.0 to 30) | COC[C@H]1CN(c2cc(C)c3c4c(c(=O)oc3c2C)CN(C(=O)c2ccc(C(=O)NS(=O)(=O)N3CCCC3)c(N(C)C)c2F)CC4)CCN1C [Example 138, (R)-2-(dimethylamino)-3-fluoro-4-(8-(3-(methoxymethyl)-4-methylpiperazin-1-yl)-7,10-dimethyl-5-oxo-1,3,4,5-tetrahydro-2H-chromeno[3,4-c]pyridine-3-carbonyl)-N-(pyrrolidin-1-ylsulfonyl)benzamide]
10 to 100 | 10 to 100 | F (<3) | COC[C@H]1CN(c2ccc3c4c(c(=O)oc3c2Cl)CN(C(=O)c2ccc(C(=O)NS(=O)(=O)N(C)C(C)C)c(OC3CCCC3)c2F)CC4)CCN1C [Example 29, (R)-4-(7-chloro-8-(3-(methoxymethyl)-4-methylpiperazin-1-yl)-5-oxo-1,3,4,5-tetrahydro-2H-chromeno[3,4-c]pyridine-3-carbonyl)-2-(cyclopentyloxy)-3-fluoro-N-(N-isopropyl-N-methylsulfamoyl)benzamide]

More lines, now with the values behind:

Structure (SMILES) | IC50 [1] [nM] | IC50 [2] [nM] | MTHFD1/MTHFD2 IC50 ratio [2]
COC[C@H]1CN(c2ccc3c4c(c(=O)oc3c2C)CN(C(=O)c2cc(N(C)C)c(C(=O)NS(=O)(=O)N3C5CCC3CC5)cc2F)CC4)CCN1C [Example 188, (R)-N-((7-azabicyclo[2.2.1]heptan-7-yl)sulfonyl)-2-(dimethylamino)-5-fluoro-4-(8-(3-(methoxymethyl)-4-methylpiperazin-1-yl)-7-methyl-5-oxo-1,3,4,5-tetrahydro-2H-chromeno[3,4-c]pyridine-3-carbonyl)benzamide] | 1000 to 5000 | 10 to 100 | H (>9.0 to 30)
COC[C@H]1CN(c2ccc3c4c(c(=O)oc3c2Cl)CN(C(=O)c2ccc(C(=O)NS(=O)(=O)C3(C)CC3)c(O[C@@H]3C[C@@H]5C[C@@H]5C3)c2F)CC4)CCN1C [Example 60, 2-(((1R,3r,5S)-bicyclo[3.1.0]hexan-3-yl)oxy)-4-(7-chloro-8-((R)-3-(methoxymethyl)-4-methylpiperazin-1-yl)-5-oxo-1,3,4,5-tetrahydro-2H-chromeno[3,4-c]pyridine-3-carbonyl)-3-fluoro-N-((1-methylcyclopropyl)sulfonyl)benzamide] | 1 to 10 | 1 to 10 | F (<3)
CCOc1cc(C(=O)N2CCc3c(c(=O)oc4c(C)c(N5CCN(C)[C@@H](COC)C5)cc(Cl)c34)C2)c(F)cc1C(=O)NS(=O)(=O)N1C2CCC1CC2 [Example 317, (R)-N-((7-azabicyclo[2.2.1]heptan-7-yl)sulfonyl)-4-(10-chloro-8-(3-(methoxymethyl)-4-methylpiperazin-1-yl)-7-methyl-5-oxo-1,3,4,5-tetrahydro-2H-chromeno[3,4-c]pyridine-3-carbonyl)-2-ethoxy-5-fluorobenzamide] | 100 to 1000 | 10 to 100 | J (>30)
COC[C@H]1CN(c2cc(C)c3c4c(c(=O)oc3c2C)CN(C(=O)c2cc(OC3CCC3)c(C(=O)NS(=O)(=O)N(C)C)cc2F)CC4)CCN1C [Example 93, (R)-2-cyclobutoxy-N-(N,N-dimethylsulfamoyl)-5-fluoro-4-(8-(3-(methoxymethyl)-4-methylpiperazin-1-yl)-7,10-dimethyl-5-oxo-1,3,4,5-tetrahydro-2H-chromeno[3,4-c]pyridine-3-carbonyl)benzamide] | 10 to 100 | 10 to 100 | G (^ 3 to 9.0)
CCOc1c(C(=O)NS(=O)(=O)N2CCCCC2)ccc(C(=O)N2CCc3c(c(=O)oc4c(C)c(N5CCN(C)[C@@H](COC)C5)ccc34)C2)c1F [Example 198, (R)-2-ethoxy-3-fluoro-4-(8-(3-(methoxymethyl)-4-methylpiperazin-1-yl)-7-methyl-5-oxo-1,3,4,5-tetrahydro-2H-chromeno[3,4-c]pyridine-3-carbonyl)-N-(piperidin-1-ylsulfonyl)benzamide] | 100 to 1000 | 100 to 1000 | F (<3)
COC[C@H]1CN(c2ccc3c4c(c(=O)oc3c2C)CN(C(=O)c2cc(N3CC5CC5C3)c(C(=O)NS(=O)(=O)N3CCCC3)c(C(F)(F)F)c2)CC4)CCN1C (stereo partly drawn) [Example 112, 2-(3-azabicyclo[3.1.0]hexan-3-yl)-4-(8-((R)-3-(methoxymethyl)-4-methylpiperazin-1-yl)-7-methyl-5-oxo-1,3,4,5-tetrahydro-2H-chromeno[3,4-c]pyridine-3-carbonyl)-N-(pyrrolidin-1-ylsulfonyl)-6-(trifluoromethyl)benzamide] | > 5000 | 100 to 1000 | G (^ 3 to 9.0)
COC[C@H]1CN(c2cc(C)c3c4c(c(=O)oc3c2C)CN(C(=O)c2ccc(C(=O)NS(=O)(=O)C3(C)CC3)c(N3C5CCC3CC5)c2F)CC4)CCN1C [Example 73, (R)-2-(7-azabicyclo[2.2.1]heptan-7-yl)-3-fluoro-4-(8-(3-(methoxymethyl)-4-methylpiperazin-1-yl)-7,10-dimethyl-5-oxo-1,3,4,5-tetrahydro-2H-chromeno[3,4-c]pyridine-3-carbonyl)-N-((1-methylcyclopropyl)sulfonyl)benzamide] | 1 to 10 | 1 to 10 | 
COC[C@H]1CN(c2cc(C)c3c4c(c(=O)oc3c2C)CN(C(=O)c2ccc(C(=O)NS(=O)(=O)N(C)C)c(OC3CCC3)c2F)CC4)CCN1C [Example 51, (R)-2-cyclobutoxy-N-(N,N-dimethylsulfamoyl)-3-fluoro-4-(8-(3-(methoxymethyl)-4-methylpiperazin-1-yl)-7,10-dimethyl-5-oxo-1,3,4,5-tetrahydro-2H-chromeno[3,4-c]pyridine-3-carbonyl)benzamide] | 1 to 10 | 1 to 10 | F (<3)
COC[C@H]1CN(c2cc(C)c3c4c(c(=O)oc3c2C)CN(C(=O)c2cc(C(=O)NS(=O)(=O)N3CCCC3)c(OC3CCC3)cc2F)CC4)CCN1C [Example 165, (R)-2-cyclobutoxy-4-fluoro-5-(8-(3-(methoxymethyl)-4-methylpiperazin-1-yl)-7,10-dimethyl-5-oxo-1,3,4,5-tetrahydro-2H-chromeno[3,4-c]pyridine-3-carbonyl)-N-(pyrrolidin-1-ylsulfonyl)benzamide] | > 5000 | 100 to 1000 | H (>9.0 to 30)
